Source: patent US20260015337A1 (Trawsfynydd Therapeutics, Inc., priority 2022, published 2026)

Biological target: 3CL Protease (Severe acute respiratory syndrome coronavirus 2, UniProt P0DTD1)
Assay: 3CL Protease enzymatic activity assay (BPS Bioscience Assay Kit #78043-1, fluorescence)
Format: biochemical, SARS-CoV-2
Settings: Table A; 30 min preincubation, 40 μM substrate, 4 hours at room temperature; read-out: IC50, nM (3CL Protease enzymatic activity)
Outline: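 SARS-CoV-2 3CL protease was preincubated with compound 30 min at room temperature in assay buffer with 1 mM DTT (≤1% DMSO), then 40 μM substrate added for 4 h at room temperature. Fluorescence at 360/460 nm, blank-subtracted; IC50 from % inhibition, with GC376 as inhibitor control.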

SMILES | IC50 [nM]
COc1ccc2[nH]c(=O)c(CC(C#N)NC(=O)[C@@H]3C4[C@H](CN3C(=O)[C@@H](NC(=O)C(F)(F)F)C(C)(C)C)C4(C)C)cc2c1 (stereo in doubt) [Compound 109, (1R,2S,5S)—N-(1-Cyano-2-(6-methoxy-2-oxo-1,2-dihydroquinolin-3-yl)ethyl)-3-((S)-3,3-dimethyl-2-(2,2,2-trifluoroacetamido)butanoyl)-6,6-dimethyl-3-azabicyclo[3.1.0]hexane-2-carboxamide] | 250 to 500
Cc1ccc2[nH]c(=O)c(C[C@@H](C#N)NC(=O)[C@@H]3C4[C@H](CN3C(=O)[C@@H](Nc3ncc(C)s3)C(C)(C)C)C4(C)C)cc2c1 (stereo in doubt) [Compound 158, (1R,2S,5S)—N—((S)-1-Cyano-2-(6-methyl-2-oxo-1,2-dihydroquinolin-3-yl)ethyl)-3-((S)-3,3-dimethyl-2-((5-methylthiazol-2-yl)amino)butanoyl)-6,6-dimethyl-3-azabicyclo[3.1.0]hexane-2-carboxamide] | 50 to 100
CC1(C)CCc2[nH]c(=O)c(CC(C#N)NC(=O)[C@@H]3C4[C@H](CN3C(=O)[C@@H](NC(=O)C(F)(F)F)C(C)(C)C)C4(C)C)cc2C1 (stereo in doubt) [Compound 127, (1R,2S,5S)—N-(1-Cyano-2-(6,6-dimethyl-2-oxo-1,2,5,6,7,8-hexahydroquinolin-3-yl)ethyl)-3-((S)-3,3-dimethyl-2-(2,2,2-trifluoroacetamido)butanoyl)-6,6-dimethyl-3-azabicyclo[3.1.0]hexane-2-carboxamide] | 500 to 1000
CC(C)(C)[C@H](NC(=O)C(F)(F)F)C(=O)N1C[C@H]2[C@@H]([C@H]1C(=O)N[C@H](C#N)Cc1nc3ccccc3[nH]c1=O)C2(C)C [Compound 185, (1R,2S,5S)—N-[(1S)-1-Cyano-2-(3-oxo-4H-quinoxalin-2-yl)ethyl]-3-[(2S)-3,3-dimethyl-2-[(2,2,2-trifluoroacetyl)amino]butanoyl]-6,6-dimethyl-3-azabicyclo[3.1.0]hexane-2-carboxamide] | < 50
CC(C)(C)[C@H](NC(=O)C(F)(F)F)C(=O)N1C[C@H]2C([C@H]1C(=O)NC(C#N)Cc1ccc[nH]c1=O)C2(C)C (stereo in doubt) [Compound 101, (1R,2S,5S)—N-(1-Cyano-2-(2-oxo-1,2-dihydropyridin-3-yl)ethyl)-3-((S)-3,3-dimethyl-2-(2,2,2-trifluoroacetamido)butanoyl)-6,6-dimethyl-3-azabicyclo[3.1.0]hexane-2-carboxamide] | 100 to 250
CC(C)(C)[C@H](NS(C)(=O)=O)C(=O)N1C[C@H]2C([C@H]1C(=O)NC(C#N)Cc1cc3c([nH]c1=O)CCOC3)C2(C)C (stereo in doubt) [Compound 124, (1R,2S,5S)—N-(1-Cyano-2-(2-oxo-1,5,7,8-tetrahydro-2H-pyrano[4,3-b]pyridine-3-yl)ethyl)-3-((S)-3,3-dimethyl-2-(methylsulfonamido)butanoyl)-6,6-dimethyl-3-azabicyclo[3.1.0]hexane-2-carboxamide] | 100 to 250
CC(C)(C)[C@H](NC(=O)C(F)(F)F)C(=O)N1C[C@H]2[C@@H]([C@H]1C(=O)N[C@@H](C#N)Cc1cc3cnccc3[nH]c1=O)C2(C)C [Compound 173, (1R,2S,5S)—N—((R)-1-Cyano-2-(2-oxo-1,2-dihydro-1,6-naphthyridin-3-yl)ethyl)-3-((S)-3,3-dimethyl-2-(2,2,2-trifluoroacetamido)butanoyl)-6,6-dimethyl-3-azabicyclo[3.1.0]hexane-2-carboxamide] | ≥ 1000
Cc1ccc2[nH]c(=O)c(CC(C#N)NC(=O)[C@@H]3C4[C@H](CN3C(=O)[C@@H](Nc3nccc(C(F)(F)F)n3)C(C)(C)C)C4(C)C)cc2c1 (stereo in doubt) [Compound 156, (1R,2S,5S)—N-(1-Cyano-2-(6-methyl-2-oxo-1,2-dihydroquinolin-3-yl)ethyl)-3-((S)-3,3-dimethyl-2-((4-(trifluoromethyl)pyrimidin-2-yl)amino)butanoyl)-6,6-dimethyl-3-azabicyclo[3.1.0]hexane-2-carboxamide] | ≥ 1000
Cc1ccc2[nH]c(=O)c(C[C@@H](C#N)NC(=O)C3C[C@H]4OCC[C@H]4N3C(=O)[C@@H](NC(=O)OCc3ccccc3)C(C)(C)C)cc2c1 (stereo partly drawn) [Compound 197, Benzyl ((2S)-1-((3aR,6aR)-5-(((S)-1-cyano-2-(6-methyl-2-oxo-1,2-dihydroquinolin-3-yl)ethyl)carbamoyl)hexahydro-4H-furo[3,2-b]pyrrol-4-yl)-3,3-dimethyl-1-oxobutan-2-yl)carbamate] | ≥ 1000
CC(C)(C)[C@H](NS(C)(=O)=O)C(=O)N1C[C@H]2C([C@H]1C(=O)NC(C#N)Cc1cc3c([nH]c1=O)CCC(F)(F)C3)C2(C)C (stereo in doubt) [Compound 126, (1R,2S,5S)—N-(1-Cyano-2-(6,6-difluoro-2-oxo-1,2,5,6,7,8-hexahydroquinolin-3-yl)ethyl)-3-((S)-3,3-dimethyl-2-(methylsulfonamido)butanoyl)-6,6-dimethyl-3-azabicyclo[3.1.0]hexane-2-carboxamide] | 100 to 250
Cc1ccc2cc(CC(C#N)NC(=O)[C@@H]3C4[C@H](CN3C(=O)[C@@H](NC(=O)C(F)(F)F)C(C)(C)C)C4(C)C)c(=O)[nH]c2c1 (stereo in doubt) [Compound 146, (1R,2S,5S)—N-(1-Cyano-2-(7-methyl-2-oxo-1,2-dihydroquinolin-3-yl)ethyl)-3-((S)-3,3-dimethyl-2-(2,2,2-trifluoroacetamido)butanoyl)-6,6-dimethyl-3-azabicyclo[3.1.0]hexane-2-carboxamide] | 50 to 100
Cc1ccc2[nH]c(=O)c(C[C@@H](C#N)NC(=O)[C@@H]3C4[C@H](CN3C(=O)[C@@H](Nc3ccnc(C(F)(F)F)n3)C(C)(C)C)C4(C)C)cc2c1 (stereo in doubt) [Compound 161, (1R,2S,5S)—N—((S)-1-Cyano-2-(6-methyl-2-oxo-1,2-dihydroquinolin-3-yl)ethyl)-3-((S)-3,3-dimethyl-2-((2-(trifluoromethyl)pyrimidin-4-yl)amino)butanoyl)-6,6-dimethyl-3-azabicyclo[3.1.0]hexane-2-carboxamide] | ≥ 1000
Cc1ccc2[nH]c(=O)c(CC(C#N)NC(=O)[C@@H]3C4[C@H](CN3C(=O)[C@@H](NS(C)(=O)=O)C(C)(C)C)C4(C)C)cc2c1 (stereo in doubt) [Compound 102, (1R,2S,5S)—N-(1-Cyano-2-(6-methyl-2-oxo-1,2-dihydroquinolin-3-yl)ethyl)-3-((S)-3,3-dimethyl-2-(methylsulfonamido)butanoyl)-6,6-dimethyl-3-azabicyclo[3.1.0]hexane-2-carboxamide] | < 50
CC(C)(C)[C@H](NS(C)(=O)=O)C(=O)N1C[C@H]2[C@H]([C@H]1C(=O)NC(C#N)Cc1cc3cnccc3[nH]c1=O)C2(C)C (stereo partly drawn) [Compound 130, (1S,2S,5S)-N-[1-cyano-2-(2-oxo-1H-1,6-naphthyridin-3-yl)ethyl]-3-[(2S)-2-(methanesulfonamido)-3,3-dimethyl-butanoyl]-6,6-dimethyl-3-azabicyclo[3.1.0]hexane-2-carboxamide] | < 50
Cc1ccc2[nH]c(=O)c(C[C@@H](C#N)NC(=O)[C@@H]3[C@H]4[C@H](CN3C(=O)[C@@H](NC(=O)C(F)(F)F)C(C)(C)C)C4(C)C)cc2c1 [Compound 113, (1S,2S,5S)—N-[(1S)-1-cyano-2-(6-methyl-2-oxo-1H-quinolin-3-yl)ethyl]-3-[(2S)-3,3-dimethyl-2-[(2,2,2-trifluoroacetyl)amino]butanoyl]-6,6-dimethyl-3-azabicyclo[3.1.0]hexane-2-carboxamide] | < 50
CC(C)(C)[C@H](NS(C)(=O)=O)C(=O)N1C[C@H]2C([C@H]1C(=O)NC(C#N)Cc1cc3c([nH]c1=O)CCCC3)C2(C)C (stereo in doubt) [Compound 122, (1R,2S,5S)—N-(1-Cyano-2-(2-oxo-1,2,5,6,7,8-hexahydroquinolin-3-yl)ethyl)-3-((S)-3,3-dimethyl-2-(methylsulfonamido)butanoyl)-6,6-dimethyl-3-azabicyclo[3.1.0]hexane-2-carboxamide] | 100 to 250
CN1c2ccccc2NC(=O)C1CC(C#N)NC(=O)[C@@H]1[C@@H]2[C@H](CN1C(=O)[C@@H](NC(=O)C(F)(F)F)C(C)(C)C)C2(C)C (stereo partly drawn) [Compound 187, (1R,2S,5S)—N-[1-Cyano-2-(1-methyl-3-oxo-2,4-dihydroquinoxalin-2-yl)ethyl]-3-[(2S)-3,3-dimethyl-2-[(2,2,2-trifluoroacetyl)amino]butanoyl]-6,6-dimethyl-3-azabicyclo[3.1.0]hexane-2-carboxamide] | ≥ 1000
Cc1ccc2[nH]c(=O)c(C[C@@H](C#N)NC(=O)[C@@H]3[C@H]4[C@H](CN3C(=O)[C@@H](NC(=O)C(F)(F)F)C(C)(C)C)C4(C)C)cc2c1 (stereo in doubt) [Compound 107, (1R,2S,5S)—N-(1-Cyano-2-(6-methyl-2-oxo-1,2-dihydroquinolin-3-yl)ethyl)-3-((S)-3,3-dimethyl-2-(2,2,2-trifluoroacetamido)butanoyl)-6,6-dimethyl-3-azabicyclo[3.1.0]hexane-2-carboxamide] | 50 to 100

Same assay, conditions: Table B; comparison with known compound K; read-out: IC50, nM (3CL Protease enzymatic activity, comparative data)

SMILES | IC50 [nM]
CC(C)(C)[C@H](NC(=O)C(F)(F)F)C(=O)N1C[C@H]2C([C@H]1C(=O)NC(C#N)Cc1ccc[nH]c1=O)C2(C)C (stereo in doubt) [Compound 101, (1R,2S,5S)—N-(1-Cyano-2-(2-oxo-1,2-dihydropyridin-3-yl)ethyl)-3-((S)-3,3-dimethyl-2-(2,2,2-trifluoroacetamido)butanoyl)-6,6-dimethyl-3-azabicyclo[3.1.0]hexane-2-carboxamide] | 147
